A short description of series [1]: pKa determination from emission intensity versus pH. The series is classed as physicochemical. The note with it: H2O:DMSO (99:1), 10^–5 M, 25 °C. The source says:
Ir-H and Ru-H are susceptible to deprotonation in aqueous media due to the presence of the acidic −COOH group. In fact, the actual protonation state of these complexes at the different physiological pH values defines their global charge and correspondingly influences their solubility, their photophysical properties, and their cellular uptake.[45]−[47] Thus, the pKa values of Ir-H and Ru-H in their excited states were experimentally determined by monitoring the variations of their emission intensity at specific wavelengths versus different pH values and fitting the data (Iem,λ/pH) to a sigmoidal equation. In good agreement with similar complexes reported in the literature,[45],[46] there was a gradual decrease in the emission intensity of Ir-H and Ru-H with decreasing pH (Figures 4 and S50). […] These values can be considered as an acceptable approximation to the values of the respective ground states. Therefore, we concluded that Ir-H and Ru-H adopt their deprotonated zwitterionic forms in the whole range of physiological pHs. This means that Ir-H assumes a zwitterionic neutral form, while Ru-H adopts a zwitterionic monocationic structure. In both cases, there is charge separation, and as a result, we predict that the cellular uptake ability of these complexes could be reduced, in comparison to that of their relatives Ir-Me and Ru-Me.
Figure 4 pKa determination. […]

The nature of series [2]: Self-aggregation study (Lambert-Beer law, UV-vis). It counts as physicochemical. The note with it: H2O:DMSO (99:1), 1 to 40 μM, absorbance at 417 nm. The protocol:
The possible aggregation properties (self-assembly behavior) were investigated for the lipophilic derivative Ir-Me through the respective analysis of the Lambert–Beer law using UV–vis spectroscopy in H2O:DMSO (99:1). More specifically, the absorbance of Ir-Me at λ = 417 nm was plotted versus concentration in the range between 1 and 40 μM. An excellent linear fitting was obtained confirming that there is no significant deviation from the Lambert–Beer law (Figures S57 and S58).

Series [3] deals with PC-3 cells. As to the kind of experiment: Intracellular ROS generation (H2DCFDA, flow cytometry). The note with it: IC50,light 4 h, blue light 1 h. It counts as cell-based, human. Here is the method:
The photocytotoxic effects of the complexes and metallopeptides were further elucidated by evaluating their ability to photogenerate ROS at the cellular level. PC-3 cells were treated with the compounds at the respective IC50,light and irradiated with blue light. Subsequently, ROS generation was measured using the 2′,7′-dichlorodihydrofluorescein diacetate (H2DCFDA) probe, which diffuses into cells and is oxidized by ROS to produce a green fluorescent signal. […] Nevertheless, to ascertain the potential contributions of other ROS to the photocytotoxic activity, the capacity of the compounds to undergo type I PDT processes, resulting in the production of superoxide anions (O2^•–), was examined using a specific fluorescent probe that emits an orange signal upon interaction with this radical. […]
Figure 9 Intracellular ROS generation. […] The elevation of general ROS (A) and superoxide anion (B) levels was determined with specific probes by flow cytometry. […]
PC-3 cells were seeded at a density of 100000 cells per well in 12-well plates and incubated overnight. […] Cells were subsequently harvested by trypsinization, and the median fluorescence emission of 10000 cells was measured using a Novocyte flow cytometer equipped with NovoExpress software. The fluorescence fold increase relative to untreated control cells was calculated. […]

For series [4], the system named is PC-3 cells. As to the kind of experiment: Apoptosis assay, annexin V/propidium iodide. It counts as cell-based, human. Particulars: five times IC50,light, photoactivated, 24 h. The protocol:
Mitochondria play an important role in the regulation of apoptosis. Alterations in the MMP can cause the release of apoptotic factors, such as cytochrome c, which activates the caspase cascade, leading to programmed cell death.[66],[67] In order to elucidate whether the toxic effect of the compounds at the mitochondrial level triggers cell death by apoptosis, a dual annexin V/propidium iodide labeling experiment was performed. The initial stages of apoptosis are characterized by alterations in the symmetry of phospholipids in the cytoplasmic membrane, which can be detected using annexin V (An). The late stages also include disruption of the cell membrane, permitting the penetration of propidium iodide (PrI), which emits red fluorescence when bound to DNA. […]
Figure 13 Cell death mechanism. […] After 24 h, the percentage of viable, necrotic, early apoptotic, and late apoptotic cells was analyzed by flow cytometry using propidium iodide and annexin V staining. […]
PC-3 cells were seeded into 12-well plates at a density of 100000 cells/well. […] The samples were immediately analyzed using a Novocyte flow cytometer. Annexin-FITC staining was detected at a wavelength of 520 nm, and propidium iodide was detected at 617 nm. The fluorescence emission of 10000 cells per sample was measured, and the percentages of live, early apoptotic, late apoptotic, and necrotic cell populations were determined.

Each structure is given as a SMILES string.

Consider `Cn1c2ccccc2c2ccnc(-c3ccc(/C=C/C(=O)O)cn3)c21.[Cl-].[Ir+3].[c-]1ccccc1-c1ccccn1.[c-]1ccccc1-c1ccccn1` [Ir-H], for which the “pKa (excited state)” value in series [1] is listed as 3.81.

In the case of `Cn1c2ccccc2c2ccnc(-c3ccc(/C=C/C(=O)O)cn3)c21.[Cl-].[Cl-].[Ru+2].c1ccc(-c2ccccn2)nc1.c1ccc(-c2ccccn2)nc1` [Ru-H], in series [1], the “pKa (excited state)” value worked out at 4.51.

Consider `COC(=O)/C=C/c1ccc(-c2nccc3c4ccccc4n(C)c23)nc1.[Cl-].[Ir+3].[c-]1ccccc1-c1ccccn1.[c-]1ccccc1-c1ccccn1` [Ir-Me], for which the self-aggregation entry in series [2] was “does not form aggregates”. Further, the “ROS levels, fold increase versus control cells” value in the series with PC-3 cells [3] was determined as 4.5 fold. For the same molecule, in the series with PC-3 cells [4], the “cells in early apoptosis” value is listed as 11.9% and the “cells in late apoptosis” value was 41.7%.

These data come from PMC11483813, “Bombesin-Targeted Delivery of β-Carboline-Based Ir(III) and Ru(II) Photosensitizers for a Selective Photodynamic Therapy of Prostate Cancer” (Inorganic Chemistry, 2024).
